Assay results reported in PubChem BioAssay (NCI).
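Briefly, cells in 96-well plates were exposed to five compound concentrations for 48 h, and endpoints were estimated by linear interpolation. TGI: total growth inhibition.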

Columns and labels:
Experiment in all cases: NCI anticancer screen, dose series, 48 h
[1] = test system: HS 578T breast
[2] = test system: NCI-H226 lung
[3] = test system: SK-MEL-2 melanoma
[4] = test system: M14 melanoma
[5] = test system: OVCAR-4 ovarian
[6] = test system: HOP-62 NSCLC
[7] = test system: SK-MEL-28 melanoma
[8] = test system: TK-10 renal
[9] = test system: IGROV1 ovarian
[10] = test system: KM12 colon

| SMILES | TGI [1] [µM] | TGI [2] [µM] | TGI [3] [µM] | TGI [4] [µM] | TGI [5] [µM] | TGI [6] [µM] | TGI [7] [µM] | TGI [8] [µM] | TGI [9] [µM] | TGI [10] [µM] |
| --- | --- | --- | --- | --- | --- | --- | --- | --- | --- | --- |
| O=[N+]([O-])c1ccc(C(Nc2ccccc2)P(c2ccccc2)c2ccccc2)cc1 (stereo not given) | > 100 | > 100 | > 100 | > 100 | > 100 | > 100 | > 100 | > 100 | > 100 | > 100 |
| O=C(NC1CCCCC1)c1cc2ccccc2cc1O | 97.8 | 41 | 44.7 | 53.3 | > 100 | > 100 | > 100 | > 100 | > 100 | > 100 |
| O=c1cc(NNc2cccc(F)c2)[nH]c(=O)[nH]1 | > 100 | > 100 | > 100 | 33.9 | > 100 | > 100 | > 100 | 27.2 | 46.7 | > 100 |
| Cc1ccc(-n2cc(-c3ccc(Cl)cc3)c3c(N/N=C4\SCC(=O)N4C)ncnc32)cc1 | 21.3 | > 100 | 6.18 | 19.5 | 8.03 | 98.8 | 6.23 | 8.18 | > 100 | > 100 |
| CC(=O)OCc1cncn1S(=O)(=O)c1ccc(C)cc1 | > 100 | > 100 | > 100 | > 100 | > 100 | > 100 | > 100 | > 100 | > 100 | > 100 |
| CNC(=S)N/N=C(\C(=N/NC(=S)NC)c1ccccn1)c1ccccn1 | 99.1 | > 75.1 | > 100 | 24.5 | > 100 | > 53.5 | > 100 | > 100 | > 100 | > 100 |
| Cc1ccc2c(=O)c(C(=O)Nn3c(C)csc3=S)c[nH]c2n1 | > 100 | > 100 | > 100 | > 100 | > 100 | > 100 | > 100 | > 100 | > 100 | > 100 |
| CC(=O)c1ccccc1NCC(=O)Nn1cnc2ccc(S(=O)(=O)Nc3ccccc3C(C)=O)cc2c1=O | > 100 | > 100 | > 100 | > 100 | > 100 | > 100 | > 100 | > 100 | > 100 | > 100 |
| CCOC(=O)c1sc2nc(SC)nc3c2c1NCN3c1ccc(F)c(F)c1 | 30.8 | > 79.9 | > 100 | > 100 | 17.7 | 34.1 | > 100 | 64.1 | > 100 | > 86.5 |
| CCCC(O)c1cn(C(NC(=O)c2ccccc2)P(=O)(OCC)OCC)nn1 (stereo not given) | > 100 | > 100 | > 100 | > 100 | > 100 | > 100 | > 100 | > 100 | > 100 | > 100 |
| CC(=O)OCC1OC(OCCCCCCO)C(OC(C)=O)C(OC(C)=O)C1OC(C)=O (stereo not given) | > 100 | > 100 | > 100 | > 100 | > 100 | > 100 | > 100 | > 100 | > 100 | > 100 |
| COC(OC)C1OCC(n2cc(F)c(=O)[nH]c2=O)C1O (stereo not given) | > 100 | > 100 | > 100 | > 100 | > 100 | > 100 | > 100 | > 100 | > 100 | > 100 |
| O=c1[nH]c(=O)n(C2CC(O)C(CO)O2)cc1NN=NCCCc1ccccc1 (stereo not given) | > 100 | > 100 | > 100 | > 100 | > 100 | > 100 | > 100 | > 100 | > 100 | > 100 |
| O=c1sc2c(s1)-c1sc(=O)sc1SS2 | > 100 | > 73.1 | > 100 | > 100 | > 100 | > 100 | > 100 | > 79.4 | > 100 | > 100 |
| COc1ccc(/C=C2\CCS(=O)(=O)c3ccccc3C2=O)cc1OC | > 100 | > 100 | > 100 | > 100 | 71.5 | > 100 | > 100 | > 100 | 72.1 | > 100 |
| COc1cc2oc(=O)cc(C)c2cc1O | > 100 | > 100 | > 100 | > 100 | > 100 | > 100 | > 100 | > 100 | > 100 | > 100 |
| C/C(=C\c1ccccc1)C(=O)NCc1ccc(C(=O)NCCc2ccccc2)cc1 | > 100 | 66.1 | > 100 | > 100 | > 100 | 10.8 | > 100 | > 100 | > 100 | > 100 |
| C(=N\Nc1ccc(-c2nc3ccccc3[nH]2)cc1)/c1c(-c2ccc(Cc3ccccc3)cc2)[nH]c2ccccc12 | 23 | > 100 | 20 | > 54.4 | > 93.6 | > 100 | > 100 | > 95.4 | 19 | > 41.3 |
